Measured values published in patent US20250144125A1 (priority 2021, published 2025).
Values joined by “and” are separate entries in the source; they are usually repeats but may differ in a detail not shown here. Equal values may be shown once. Read-outs that look alike come from different tables or passages of the source.

What was measured:
[1] = test system: tacaribe virus (TRVL11573 strain); experiment: microbe, parasite or virus in culture; type: cell-based; settings: read-out: Tacaribe virus EC50 TRVL 11573 strain
[2] = test system: influenza A (H1N1) virus (California/07/2009 strain); experiment: microbe, parasite or virus in culture; type: cell-based; settings: for EC50: read-out: EC50 California/07/2009 strain
[3] = Cytotoxicity in the human norovirus replicon assay (HG23 cells); settings: human, HG23 Nov replicon cells
in vitro [4] = settings: African green monkey, Tacaribe virus CC50 Vero
[5] = test system: human norovirus genogroup I NoV (Norwalk virus replicon) in HG23 cells; experiment: Human norovirus antiviral assay, qRT PCR in HG23 NoV replicon cells; type: cell-based; settings: for EC50: HG23 Nov replicon cells, qRT PCR intracellular RNA, read-out: EC50 human norovirus
[6] = test system: measles virus (CC strain); experiment: microbe, parasite or virus in culture; type: cell-based
in vitro [7] = settings: dog, CC50 MDCK
in vitro [8] = settings: human
in vitro [9] = settings: African green monkey
[10] = test system: yellow fever virus (YFV 17D strain); experiment: microbe, parasite or virus in culture; type: cell-based
[11] = test system: dengue virus 2 (New Guinea C strain); experiment: microbe, parasite or virus in culture; type: cell-based
[12] = test system: chikungunya virus (S27 strain); experiment: microbe, parasite or virus in culture; type: cell-based
MERS-CoV (EMC strain) = experiment: microbe, parasite or virus in culture; type: cell-based
[13] = test system: enterovirus-71 (Tainan/4643/98 strain); experiment: Secondary assay (virus yield reduction / neutral red CPE) against enterovirus-71 in Vero 76 cells; type: cell-based
[14] = test system: enterovirus-71 (Tainan/4643/98 strain); experiment: organism not typed; type: cell-based
HCV = settings: literature; read-out: EC50 against HCV (RNA replication); cited from earlier work
HG23 Nov replicon cells = experiment: Cytotoxicity in the human norovirus replicon assay (HG23 cells); settings: read-out: CC50 human norovirus assay
[15] = test system: tacaribe virus (TRVL11573 strain); type: cell-based
[16] = Mammarenavirus tacaribeense, Vero
[17] = read-out: MERS-CoV CC50 Vero 76, Neutral Red, MERS-CoV screen
[18] = Measles morbillivirus, Vero 76, read-out: Measles EC50 CC strain
[19] = read-out: Measles EC50 CC strain
[20] = read-out: Yellow fever virus CC50 Huh7, Neutral Red, YFV screen
[21] = read-out: Yellow fever virus CC50 Huh7, Visual, YFV screen
[22] = Yellow fever virus, Huh-7, read-out: Yellow fever virus EC50 YFV 17D strain
[23] = read-out: Yellow fever virus EC50 YFV 17D strain
[24] = Dengue virus, Huh-7, read-out: EC50 dengue virus 2
[25] = Chikungunya virus, Vero 76, read-out: EC50 chikungunya virus
[26] = Middle East respiratory syndrome-related coronavirus, Vero 76, read-out: MERS-CoV EC50 EMC strain
[27] = read-out: MERS-CoV EC50 EMC strain
[28] = Vero 76, Neutral Red (Cytopathic effect/Toxicity)
[29] = Vero 76, Visual (Virus yield reduction)
[30] = Vero 76, read-out: EC50 enterovirus-71
[31] = read-out: EC50 chikungunya virus
[32] = read-out: MERS-CoV CC50 Vero 76, Visual, MERS-CoV screen

SMILES | EC50 [1, 16] [µM] | EC50 [1] [µM] | EC50 ([2]; Influenza A virus, H1N1, MDCK) [µM] | EC50 [2] | CC50 at 3 days [3] [µM] | CC50 (in vitro [4]) [µM] | EC50 ([5]; Norwalk virus) [µM] | CC50 (Vero 76 cells; [17]) [µM] | EC50 [6, 18] [µM] | EC50 [6, 19] | CC50 (in vitro [7]) [µM] | CC50 (Huh7 cells; human) [µM] | CC50 (Huh7 cells; [20]) [µM] | CC50 (in vitro [8]; CC50) [µM] | CC50 (Vero cells; African green monkey) [µM] | CC50 (in vitro [9]; Measles CC50 Vero 76) [µM] | EC50 [11, 24] [µM] | EC50 ([11]; read-out: EC50 dengue virus 2) [µM] | EC50 [14, 30] [µM] | EC50 ([14]; read-out: EC50 enterovirus-71) [µM] | further results
CC#Cc1ncnc2c1ccn2[C@@H]1O[C@H](CO)[C@@H](O)[C@H]1O [3.1d, 6-(Prop-1-yn-1-yl)-9-β-D-ribofuranosyl-7-deazapurine] | 3.2 | 2.2 | 3.2 | 2.9 µM | 17.4 | 5.2 | 0.006 | 3.3 | > 3.6 | > 3.4 µM | 6.1 | 3.7 | 1.8 | 3.6 | 4.2 | 3.6 | 0.32 | 0.37 |  |  | CC50 (MDCK cells; dog): 4.9 µM; activity against human norovirus in words [5]: low nanomolar activity and high selectivity; CC50 (Vero 76 cells; African green monkey): 3.4 µM; CC50 (Huh7 cells; [21]): 12 µM; CC50 (in vitro [9]; MERS-CoV CC50 Vero 76): 3.2 µM; EC50 [10, 22]: 2.9 µM; EC50 [10, 23]: > 1.8 µM
CC(C)C#Cc1ncnc2c1ccn2[C@@H]1O[C@H](CO)[C@@H](O)[C@H]1O [3.1e, 6-(3-Methylbut-1-yn-1-yl)-9-β-D-ribofuranosyl-7-deazapurine] | 1.3 | 1 | 3.2 | 3 µM | 39.5 | 10 | 0.396 | > 100 | 3.2 | 2.4 µM |  | 21 |  | 24 | 7.3 | 34 | 3.2 | 1.8 | 4.2 | 4.3 | EC50 [12, 25]: > 100 µM; EC50 (MERS-CoV (EMC strain); [26]): 11 µM; EC50 (MERS-CoV (EMC strain); [27]): 14 µM; EC50 [13, 28]: 4 µM; EC90 [13, 29]: 4.6 µM; CC50 (in vitro [8]; Yellow fever virus CC50 Huh7): 28 µM; CC50 (in vitro [9]; MERS-CoV CC50 Vero 76): > 100 µM; EC50 [10, 22]: 9.2 µM
C[C@@]1(O)[C@H](O)[C@@H](CO)O[C@H]1n1ccc2c(N)ncnc21 [7-Deaza-2′-C-methyladenosine] |  |  |  |  |  |  |  |  |  |  |  |  |  |  |  |  |  |  |  |  | EC50 (HCV): 0.25 µM
CCOC(=O)c1ccc(OCCC2CCN(c3ccc(C)nn3)CC2)cc1 [Pirodavir, pirodavir, reference compound] |  |  |  |  |  |  |  |  |  |  |  |  |  |  |  |  |  |  | 0.4 | 0.27 | EC50 [13, 28]: 0.35 µM; EC90 [13, 29]: 0.46 µM; CC50 (in vitro [9]; CC50): > 27 µM
C[C@@]1(O)[C@H](O)[C@@H](CO)O[C@H]1n1cc(F)c2c(N)ncnc21 [7-fluoro-7-deaza-2′-C-methyladenosine] |  |  |  |  |  |  |  |  |  |  |  |  |  |  |  |  |  |  |  |  | EC50 (HCV): 0.07 µM
OC[C@H]1O[C@@H](n2ccc3c(C#CC4CC4)ncnc32)[C@H](O)[C@@H]1O [3.1c, 6-Cydopropylethynyl-9-β-D-ribofuranosyl-7-deazapurine] |  | 0.68 |  | 11 µM and 8.2 µM |  |  |  | > 100 |  | 0.97 µM and 1 µM |  |  | 60 |  |  |  |  |  |  | > 100 | activity against influenza A (H1N1) in words [2]: moderate activity; EC50 [12, 31]: > 100 µM; CC50 (HG23 Nov replicon cells): 17.5 µM; CC50 (MDCK cells): > 100 µM; EC50 [5]: 0.13 µM and 0.126 µM; CC50 (Vero 76 cells): > 100 µM; CC50 (Vero 76 cells; [32]): 100 µM; activity against MERS-CoV in words (MERS-CoV (EMC strain)): moderately active with low selectivity index; EC50 (MERS-CoV (EMC strain); [27]): 10 µM and 6.7 µM; CC50 (Huh7 cells; [21]): 32 µM; EC50 [10, 23]: 0.86 µM and 1.8 µM; activity against enterovirus-71 in words [14]: inactive; EC50 [15]: 1.1 µM; EC90 [15]: 0.65 µM
CCCC#Cc1ncnc2c1ccn2[C@@H]1O[C@H](CO)[C@@H](O)[C@H]1O [3.1f, 6-(Pent-1-yn-1-yl)-9-β-D-ribofuranosyl-7-deazapurine] | 1.6 | 1.8 | 2.2 | 2.3 µM | 38.7 | 10 | 0.002 | 110 | 3.2 | 3.7 µM | 9.1 | 11 | 31 | 12 | 9.9 | 63 | 0.75 | 0.96 | 2.2 | 1.6 | CC50 (MDCK cells; dog): 5.1 µM; activity against human norovirus in words [5]: low nanomolar activity and high selectivity; CC50 (Vero 76 cells; [32]): 19 µM; EC50 [13, 28]: 29 µM; EC90 [13, 29]: 17 µM; CC50 (in vitro [8]; Yellow fever virus CC50 Huh7): 28 µM; CC50 (in vitro [9]; CC50): > 100 µM
OC[C@H]1O[C@@H](n2ccc3c(C#Cc4ccc(Cl)cc4)ncnc32)[C@H](O)[C@@H]1O [3.1j, 6-((4-Chlorophenyl)ethynyl)-9-β-D-ribofuranosyl-7-deazapurine] | > 8.6 | > 6.5 | > 2.4 | > 3.2 µM | 38.6 | 8.6 | 0.022 |  | 3.2 | 3.3 µM | 2.4 | 13 | 5 | 12 | 6.5 | 12 | 1.1 | 1 | > 32 | > 31 | EC50 [12, 25]: > 32 µM; EC50 [12, 31]: > 23 µM; CC50 (MDCK cells; dog): 3.2 µM; EC50 (MERS-CoV (EMC strain); [26]): > 32 µM; CC50 (Huh7 cells; [21]): 28 µM; CC50 (in vitro [9]; MERS-CoV CC50 Vero 76): 32 µM; EC50 [10, 22]: 1.2 µM; EC50 [10, 23]: 0.8 µM
OC[C@H]1O[C@@H](n2ccc3c(C#CC4CCCC4)ncnc32)[C@H](O)[C@@H]1O [3.1g, 6-(Cydopentylethynyl)-9-β-D-ribofuranosyl-7-deazapurine] |  | 0.37 |  | > 8.4 µM |  |  |  | 49 |  | 3.3 µM and 2.8 µM |  |  | 6 |  |  |  |  |  |  | 1.5 | EC50 [12, 31]: > 100 µM; CC50 (HG23 Nov replicon cells): 25.8 µM; EC50 [5]: 0.438 µM; CC50 (Vero 76 cells; [32]): 100 µM; activity against MERS-CoV in words (MERS-CoV (EMC strain)): moderately active with low selectivity index; EC50 ([13]; Neutral Red (Cytopathic effect/Toxicity)): 3.8 µM; EC90 ([13]; Visual (Virus yield reduction)): 1.1 µM; CC50 (Huh7 cells; [21]): 8.6 µM; CC50 (Vero cells): 34 µM; EC50 [10, 23]: 0.86 µM and 1.3 µM
OC[C@H]1O[C@@H](n2ccc3c(C4CC4)ncnc32)[C@H](O)[C@@H]1O [3.1a, 6-Cyclopropyl-9-β-D-ribofuranosyl-7-deazapurine, reference compound] | 100 | > 100 | > 100 |  | > 100 | 100 | 2.52 | > 100 | 63 | 56 µM | > 100 |  | > 100 | > 100 | > 100 | 100 | 32 | 45 | > 100 |  | activity against influenza A (H1N1) in words [2]: not active; activity against chikungunya virus in words [12]: inactive; EC50 [12, 25]: > 100 µM; CC50 (Vero 76 cells; African green monkey): > 100 µM; EC50 (MERS-CoV (EMC strain); [26]): > 100 µM; CC50 (in vitro [8]; Yellow fever virus CC50 Huh7): 100 µM; CC50 (in vitro [9]; MERS-CoV CC50 Vero 76): > 100 µM; EC50 [10, 22]: > 100 µM
